How the values were obtained:
[1] = tested on: Human immunodeficiency virus 1; assay: Antiviral activity against HIV1 assessed as inhibition of capsid assembly; type: functional
[2] = tested on: Human immunodeficiency virus 1; assay: Antiviral activity against HIV1 infected in human C8166 cells assessed as inhibition of viral replication after 3 days by luciferase assay; type: functional, organism-based; settings: Human immunodeficiency virus 1, C8166, 72 h
[3] = tested on: Human immunodeficiency virus 1; assay: Antiviral activity against HIV1 assessed as inhibition of capsid assembly at 1.4 uM; type: functional
[4] = tested on: Rous sarcoma virus; assay: Antiviral activity against Rous sarcoma virus assessed as inhibition of capsid assembly; type: functional
[5] = tested on: Human immunodeficiency virus 1; assay: Antiviral activity against HIV1 expressing wild type reverse transcriptase infected in human C8166 cells assessed as inhibition of viral replication after 3 days by luciferase assay; type: functional, organism-based; settings: Human immunodeficiency virus 1, C8166, 72 h
[6] = tested on: Human immunodeficiency virus 1; assay: Antiviral activity against HIV1 assessed as inhibition of capsid assembly at 3.8 uM; type: functional
[7] = Cytotoxicity against human C8166 cells; type: cell-based
[8] = tested on: Human immunodeficiency virus 1; assay: Antiviral activity against HIV1 expressing reverse transcriptase K103N/Y181C double mutant infected in human C8166 cells assessed as inhibition of viral replication after 3 days by luciferase assay; type: functional, organism-based; settings: Human immunodeficiency virus 1, C8166, 72 h

Row | SMILES | IC50 [1] [nM] | EC50 [2] [nM] | also measured
1 | CN1c2ccc(Cl)cc2N(c2ccccc2)C(=O)c2c1ncn2C | 300 | 2900 | –
2 | CN1c2ccc(Cl)cc2N(c2ccccc2)C(=O)c2c1ncn2Cc1ccc(C(=O)O)cc1 | 430 | 6100 | –
3 | CN1c2ccc(Cl)cc2N(c2ccccc2)C(=O)c2cn(Cc3cccc(O)c3)nc21 | 600 | 4700 | –
4 | CCn1cnc2c1C(=O)N(c1ccccc1)c1cc(Cl)ccc1N2C | 220 | 5200 | –
5 | C=CCC1C(=O)N(C)c2ccc(C(F)(F)F)cc2N(c2ccccc2)C1=O (configuration not stated) | 16000 | – | –
6 | CN1c2ccc(Cl)cc2N(c2ccccc2)C(=O)c2c1ncn2Cc1cccc(O)c1 | 560 | 7300 | –
7 | COCCN/C=C1\C(=O)N(C)c2ccc(C(F)(F)F)cc2N(c2cccc(Cl)c2)C1=O | 7800 | – | –
8 | CN1c2ccc(Cl)cc2N(c2ccccc2)C(=O)c2cn(C)nc21 | 700 | 7000 | –
9 | CCn1cc2c(n1)N(C)c1ccc(Cl)cc1N(c1ccccc1)C2=O | 2200 | – | –
10 | COCCN/C=C1\C(=O)N(C)c2ccc(C(F)(F)F)cc2N(c2ccc(Cl)cc2)C1=O | 4000 | – | –
11 | COCCn1cc2c(n1)N(C)c1ccc(Cl)cc1N(c1ccccc1)C2=O | 1500 | 16000 | –
12 | CN1c2ccc(Cl)cc2N(c2ccccc2)C(=O)c2[nH]cnc21 | 210 | 3800 | –
13 | COCCN/C=C1\C(=O)N(C)c2cccc(Cl)c2N(c2ccccc2)C1=O | 930 | – | –
14 | CN(C)CCn1cc2c(n1)N(C)c1ccc(Cl)cc1N(c1ccccc1)C2=O | 6800 | 16000 | –
15 | CN1c2ccc(Cl)cc2N(c2ccccc2)C(=O)c2c1ncn2CCN | 370 | 4800 | –
16 | COCCN/C=C1/C(=O)Nc2cc(Cl)ccc2N(c2ccc(C)cc2)C1=O | > 9000 | – | –
17 | CN1C(=O)C(CCc2ccccc2)C(=O)N(c2ccccc2)c2cc(C(F)(F)F)ccc21 (configuration not stated) | – | – | inhibition at 1.4 µM [3]: 10%
18 | O=C1Nc2ccc(Cl)cc2NC(=O)/C1=C/NCc1ccncc1 | 670 | – | –

Row | SMILES | IC50 [1] [nM] | EC50 [2] [nM] | also measured
19 | CCCCN/C=C1\C(=O)Nc2ccc(Cl)cc2N(c2ccccc2)C1=O | 1400 | 17000 | IC50 [4]: > 100000 nM
20 | COCCN/C=C1\C(=O)N(C)c2ccc(C(F)(F)F)cc2N(c2ccccc2)C1=O | 890 | – | –
21 | CN1C(=O)C(Cc2ccccc2)C(=O)N(c2ccccc2)c2cc(C(F)(F)F)ccc21 (configuration not stated) | – | – | EC50 [5]: > 20000 nM; inhibition at 3.8 µM [6]: 40%
22 | CCN1C(=O)/C(=C\NCCOC)C(=O)Nc2cc(Cl)ccc21 | 470 | – | –
23 | O=C1CC(=O)Nc2cc(Cl)ccc2N1 | > 46000 | – | –
24 | CN1C(=O)C(c2ccccc2)C(=O)N(c2ccccc2)c2cc(C(F)(F)F)ccc21 (configuration not stated) | 1200 | – | EC50 [5]: 3000 nM; CC50 [7]: > 20000 nM; EC50 [8]: 2700 nM
25 | CN1c2ccc(Cl)cc2N(c2ccccc2)C(=O)c2cn(Cc3ccc(C(=O)O)cc3)nc21 | 600 | 2000 | –
26 | CN1c2ccc(Cl)cc2N(c2ccccc2)C(=O)c2c[nH]nc21 | 300 | 7800 | –
27 | COCCN/C=C1\C(=O)Nc2ccc(Cl)cc2NC1=O | 1400 | – | –
28 | COCCN/C=C1\C(=O)N(C)c2ccccc2N(c2cccs2)C1=O | 500 | – | –
29 | COCCNCc1ccc(Cn2cnc3c2C(=O)N(c2ccccc2)c2cc(Cl)ccc2N3C)cc1 | 170 | 900 | –
30 | COCCn1cnc2c1C(=O)N(c1ccccc1)c1cc(Cl)ccc1N2C | 360 | 5800 | –
31 | COCCN/C=C1/C(=O)Nc2cc(Cl)ccc2N(C)C1=O | 590 | – | –
32 | O=C1Nc2ccc(Cl)cc2NC(=O)/C1=C/NCCO | 850 | – | –
33 | COCCN/C=C1\C(=O)N(C)c2cc(Cl)ccc2N(c2ccccc2)C1=O | 1600 | – | –
34 | COCCN/C=C1\C(=O)N(C)c2c(Cl)cccc2N(c2ccccc2)C1=O | 2600 | – | –
35 | CN1c2ccc(Cl)cc2N(c2ccccc2)C(=O)c2cn(Cc3ccc(CN4CCOCC4)cc3)nc21 | 1000 | 900 | –
36 | COCCN/C=C1\C(=O)N(C)c2ccc(C3CC3)cc2N(c2ccccc2)C1=O | 1400 | – | –

Source: ChEMBL document CHEMBL1641406, “Discovery of a 1,5-dihydrobenzo[b][1,4]diazepine-2,4-dione series of inhibitors of HIV-1 capsid assembly” (Bioorg Med Chem Lett, 2011)
